The values below come from US20230045509A1, “PHARMACEUTICAL COMPOSITIONS COMPRISING CABOTEGRAVIR” (ViiV Healthcare Company, priority 2019, published 2023).

A short description of series [1]: Wettability study to define limits of cabotegravir suspension strength. The format is physicochemical. As to the method:
Wettability of Cabotegravir in 38 mg/mL P338, 35 mg/mL PEG3350, and 20 mg/mL mannitol was assessed to estimate the approximate concentration limit for Cabotegravir suspension in this vehicle. This was performed by adding increasing amounts of Cab to 5 g of vehicle until a gross change in coarse suspension properties was observed.

The subject of series [2] is HIV-1 strains. As to conditions: integrase strand transfer inhibitor; background statement; cited from earlier work.

In the case of `C[C@H]1CO[C@@H]2Cn3cc(C(=O)NCc4ccc(F)cc4F)c(=O)c(O)c3C(=O)N12` [Cabotegravir, N-((2,4-Difluorophenyl)methyl)-6-hydroxy-3-methyl-5,7-dioxo-2,3,5,7,11,11a hexahydro(1,3)oxazolo(3,2-a)pyrido(1,2-d)pyrazine-8-carboxamide], the Gross viscosity entry in series [1] (580† mg/mL Cabotegravir (calculated using approximated densities) in same vehicle) is “Boundary of thickening”; in series [1] (600† mg/mL Cabotegravir (calculated using approximated densities) in same vehicle) it was “Thicker, but flowable”; in series [1] (635† mg/mL Cabotegravir (calculated using approximated densities) in same vehicle) it was “Slightly paste-like”. The “upper boundary of Cabotegravir solid suspension concentration” value in series [1] (vehicle 38 mg/mL P338, 35 mg/mL PEG3350, 20 mg/mL mannitol) is recorded as at most 600 mg/mL. Also, the potency entry in series [2] is “subnanomolar potency”.
